Target: MDM2 (Homo sapiens, UniProt Q00987)
Assay: Fluorescence polarization
Details: FP assay

activity toward MDM2 (in words)	SMILES
only slightly or not active at all	O=C(O)c1[nH]c2cc(Cl)ccc2c1C1C(=O)NCCCCCCCCCCCCCC(=O)N1Cc1ccc(F)cc1 (stereo not drawn) [1d]
only slightly or not active at all	O=C(O)c1[nH]c2cc(Cl)ccc2c1C1C(=O)NCCCCCCCCCCCCCC(=O)N1Cc1ccc(Cl)cc1 (stereo not drawn) [1f]

SMILES	activity toward MDM2 (in words)
CCOC(=O)c1[nH]c2cc(Cl)ccc2c1C1C(=O)NCCCCCCCCCCCCCCCCCCCC(=O)N1Cc1ccc(OCc2ccc(Cl)c(Cl)c2)cc1 (stereo not drawn) [2k]	orders of magnitude less reactive or inactive

From PMC5641952 (ACS Medicinal Chemistry Letters, 2017)
